Reference: patent US9539303B2, “Treatment of Ras-expressing tumors” (Celgene Corporation, priority 2006, dated 2017)
Values joined by “and” are separate entries in the source; they are usually repeats but may differ in a detail not shown here. Equal entries are not always repeated. “Also recorded” adds a separate entry of the source.

Legend:
[1] = tested on: Panc-1 human pancreas tumors (oncogenic K-ras); assay: Panc-1 mouse xenograft model, tumor growth (Example 1); type: in vivo, female nude mice; details: Panc-1 xenograft; N=9 mice per group
Description: In this study, female nude mice were implanted subcutaneously (SC) by trocar with Panc-1 tumor fragments harvested from SC growing tumors in nude mice hosts. […] The day of treatment initiation was specified as Day 1. Vehicle control and FK228 were administered intravenously on a […] schedule (Days 1, 5, and 9). Gemcitabine was administered by an intraperitoneal injection on a […] schedule (Days 1, 4, 7, 10). Tumors were measured by Vernier calipers twice weekly.

c-Myc = assay: Tissue biomarker immunoblotting of PANC-1 xenograft tumors: c-Myc; type: in vivo; details: PANC-1 tumors at study completion; FK228 5 mg/kg Q4Dx3, gemcitabine 80 mg/kg Q3Dx4, or both; actin-normalized vs control
Description: (§1) Specimen Collection: […] Tumor xenograft tissue and serum specimens were obtained from in vivo studies performed by the Preclinical Research Laboratory at the completion of the experiments. […] Serum was obtained from whole blood and stored frozen at -70° C. Tissue Biomarkers: Tumor levels of acetylated histone-4, histone-4, […] were quantified by immunoblotting as described. Briefly, frozen tissue was pulverized under liquid nitrogen and homogenized in hypotonic lysis buffer. Small aliquots of the extracts were used for analysis of protein concentration by micro-BCA assay with bovine serum albumin as a protein standard. An equal amount of extracts containing about 20-50 μg protein was electrophoresed in SDS polyacrylamide gels. Proteins were transferred to ImmunoBlot PVDF membrane and were probed with appropriate primary and secondary antibodies. The chemiluminescence signal was captured by autoradiography, quantified by densitometry and expressed as a ratio of actin in each sample lane. For each biomarker, means and standard errors were calculated in each treatment group. […] Following quantitative analysis of biomarker levels in each sample, the results were normalized for b-actin and expressed as percentages of untreated controls. […]

acetylated histone 3 = assay: Tissue biomarker immunoblotting of PANC-1 xenograft tumors: acetylated histone 3; type: in vivo; details: PANC-1 tumors at study completion; FK228 5 mg/kg Q4Dx3, gemcitabine 80 mg/kg Q3Dx4, or both
Description: as §1

acetylated histone 4 = assay: Tissue biomarker immunoblotting of PANC-1 xenograft tumors: acetylated histone 4; type: in vivo; details: PANC-1 tumors at study completion; FK228 5 mg/kg Q4Dx3, gemcitabine 80 mg/kg Q3Dx4, or both
Description: as §1

p21^waf = assay: Tissue biomarker immunoblotting of PANC-1 xenograft tumors: p21waf; type: in vivo; details: PANC-1 tumors at study completion; FK228 5 mg/kg Q4Dx3, gemcitabine 80 mg/kg Q3Dx4, or both
Description: as §1

[2] = tested on: PANC-1 human pancreatic tumor xenograft; assay: PANC-1 human pancreatic tumor xenograft tumor growth inhibition study (Example 3); type: in vivo, female nude mice (nu/nu); details: PANC-1 study
Excerpt: (§2) (Madison, Wis.). […] Tumor measurements were converted to cubic millimeter tumor volume using the formula^(5): […] TGI values for each treatment group are reported at study completion; these calculations are based on the final study day. […] Individual mice lacking palpable tumors were classified as undergoing complete regression (CR). Animals experiencing partial or complete tumor regressions were censored from TGI calculations. However, data from these animals was included in statistical analysis calculations. In addition, weight data from these animals was included in daily and final group calculations. Tumor Necrosis-Degree of tumor necrosis was rated at each tumor measurement using the following arbitrary index: […]

[3] = Animal weight and drug toxicity, PANC-1 study
Excerpt: (§3) Model Information—Female nude mice (nu/nu) between 5 and 6 weeks of age weighing approximately 20 grams were obtained from Harlan, Inc. (Madison, Wis.). PANC-1, obtained from the ATCC, is a pancreas tumor cell line originating from a person^(1-2). BxPC-3, obtained from the American Type Culture Collection (ATCC), is a pancreas tumor cell line originating from a person^(3-4). PANC-1 Study: Animals were implanted subcutaneously (SC) by trocar with fragments of PANC-1 harvested from SC growing tumors in nude mice hosts. When tumors grew to approximately 135 cubic millimeters (mm^3) in size (17 days following implantation, animals were pair-matched by tumor size into treatment and control groups; each treatment group contained nine mice. BxPC-3 Study: Animals were implanted subcutaneously (SC) by trocar with fragments of BxPC-3 harvested from SC growing tumors in nude mice hosts. When tumors grew to approximately 85 cubic millimeters (mm^3) in size (19 days following implantation), animals were pair-matched by tumor size into treatment and control groups; each treatment group contained nine mice. Animals in both studies were ear-tagged and followed individually throughout the experiment.
(§4) Study Design and Dosing—Initial doses were administered on Day 1 following pair-matching; both experiments were carried out as tumor growth inhibition (TGI) studies. Animals were dosed intravenously (IV) via tail vein with FK228 once every four days for three treatments (Q4Dx3) or by intraperitoneal (IP) injection with gemcitabine once every three days for four treatments (Q3Dx4), either alone or in combination, at the doses listed below (Table 1). To serve as a negative control, FK228 vehicle (2% ethanol, 8% propylene glycol, 90% 0.9% saline) was injected on a Q4Dx3 schedule.
(§5) Animal Weights—Individual and group mean weights±SD and percent weight change through Day 25 (PANC-1) or Day 29 (BxPC-3) were recorded twice weekly until study completion beginning Day 1. Final group mean weights±SD and group nadir values are reported; weight data from individual animals experiencing technical or drug-related deaths was censored from final group calculations.
(§6) Moribundity/Mortality—Animals were observed twice weekly for general moribundity and daily for mortality. Animal deaths were assessed as drug-related or technical based on factors including gross observation and weight loss; reported animal death information includes type, number, and day of death for each group.

[4] = tested on: BxPC-3 human pancreatic tumor xenograft; assay: BxPC-3 human pancreatic tumor xenograft tumor growth inhibition study (Example 3); type: in vivo, female nude mice (nu/nu); details: BxPC-3 study; for % TGI: Day 29
Excerpt: as §2

[5] = Animal weight and drug toxicity, BxPC-3 study
Excerpt: as §3, §4, §5, §6

[6] = at the evaluated doses and schedules
[7] = Day 25, Gemcitabine 40 mg/kg IP Q3Dx4
[8] = Day 25, Gemcitabine 80 mg/kg IP Q3Dx4
[9] = Day 29, Gemcitabine 40 mg/kg IP Q3Dx4
[10] = Day 29, Gemcitabine 80 mg/kg IP Q3Dx4

In the case of `Nc1ccn([C@@H]2O[C@H](CO)[C@@H](O)C2(F)F)c(=O)n1` [Gemcitabine, gemcitabine], the tumor regression [1] is reported as “no regression”, the “extent of inhibition of c-Myc expression” value (c-Myc) is reported as 50% and the “acetylation of histone 3” value (acetylated histone 3) is reported as “significantly inhibited”. The “levels of acetylated histone 4 vs control” value (acetylated histone 4) was “on the control level”, the “p21^waf expression” value (p21^waf) was “downregulated; also recorded: down-regulated” and the “#PR/CR” value ([2]; Gemcitabine 40 mg/kg IP Q3Dx4) was 1/9 and 1/0. The “Activity according to NCI standards” value ([2]; Gemcitabine 40 mg/kg IP Q3Dx4) was “inactive”, the Tumor necrosis ([2]; Gemcitabine 40 mg/kg IP Q3Dx4) was 1/9 animals reported mild tumor necrosis and 4/9 reported moderate necrosis and the “#PR/CR” value ([2]; Gemcitabine 80 mg/kg IP Q3Dx4) was 0/9 and 0/0. For the same molecule, the “% TR” value ([2]; Gemcitabine 80 mg/kg IP Q3Dx4) was 0%, the “Activity according to NCI standards” value ([2]; Gemcitabine 80 mg/kg IP Q3Dx4) was “inactive” and the Tumor necrosis ([2]; Gemcitabine 80 mg/kg IP Q3Dx4) was 1/9 animals reported slight tumor necrosis, 2/9 reported mild tumor necrosis, and 1/9 reported moderate necrosis. The “calculated TGI values” [2, 6] was “less than 58%”, the “Final weight data % change” value [3, 7] was “+7%” and the “Final weight data mean ± SD” value [3, 7] was 24±1 G. For the same molecule, the “Final weight data % change” value [3, 8] was “+12%”, the “Final weight data mean ± SD” value [3, 8] was 26±3 G and the Drug deaths total ([3]; Gemcitabine 40 mg/kg IP Q3Dx4) was 0/9 and 0. For the same molecule, the “Weight nadir % change” value ([3]; Gemcitabine 40 mg/kg IP Q3Dx4) was −2%, the Weight nadir day ([3]; Gemcitabine 40 mg/kg IP Q3Dx4) was 11 and the Drug deaths total ([3]; Gemcitabine 80 mg/kg IP Q3Dx4) was 0/9 and 0. For the same molecule, the “Weight nadir % change” value ([3]; Gemcitabine 80 mg/kg IP Q3Dx4) was −3%, the Weight nadir day ([3]; Gemcitabine 80 mg/kg IP Q3Dx4) was 11 and the “% TGI” value ([4]; Gemcitabine 40 mg/kg IP Q3Dx4) was 20%. For the same molecule, the “% TGI” value ([4]; Gemcitabine 80 mg/kg IP Q3Dx4) was 9%, the “#PR/CR” value ([4]; Gemcitabine 40 mg/kg IP Q3Dx4) was 0/9 and 0/0 and the “Activity according to NCI standards” value ([4]; Gemcitabine 40 mg/kg IP Q3Dx4) was “inactive”. The Tumor necrosis ([4]; Gemcitabine 40 mg/kg IP Q3Dx4) was 1/9 animals reported severe tumor necrosis, the “#PR/CR” value ([4]; Gemcitabine 80 mg/kg IP Q3Dx4) was 0/9 and 0/0 and the “Activity according to NCI standards” value ([4]; Gemcitabine 80 mg/kg IP Q3Dx4) was “inactive”. The Tumor necrosis ([4]; Gemcitabine 80 mg/kg IP Q3Dx4) was 1/9 animals reported mild tumor necrosis, the “calculated TGI values” [4, 6] was “less than 58%” and the “Final weight data % change” value [5, 9] was “+9%”. For the same molecule, the “Final weight data mean ± SD” value [5, 9] was 25±3 G, the “Final weight data % change” value [5, 10] was “+1%” and the “Final weight data mean ± SD” value [5, 10] was 22±4 G. For the same molecule, the Drug deaths total ([5]; Gemcitabine 40 mg/kg IP Q3Dx4) was 0/9 and 0, the “Weight nadir % change” value ([5]; Gemcitabine 40 mg/kg IP Q3Dx4) was “No weight loss” and the Drug deaths total ([5]; Gemcitabine 80 mg/kg IP Q3Dx4) was 0/9 and 0. For the same molecule, the “Weight nadir % change” value ([5]; Gemcitabine 80 mg/kg IP Q3Dx4) was −9% and the Weight nadir day ([5]; Gemcitabine 80 mg/kg IP Q3Dx4) was 11.
